Source: ChEMBL document CHEMBL1201862, “PubChem BioAssay data set” (2004)
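Values below derive from 48-hour exposures of cells grown in 96-well plates, with endpoints linearly interpolated between the two concentrations bracketing the appropriate inhibition level. Here, GI50 denotes the concentration required for 50% inhibition of growth.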 Activity calls are given as the source filed them. Cut-off read from the data, not from the text of the source: active = GI50 up to about 1.1 µM and inactive = higher.

Tests used:
Assay in all cases: DTP human tumour cell line panel, 48 h
UACC-257 = test system: UACC-257
SW-620 = test system: SW-620
SK-MEL-5 = test system: SK-MEL-5
SF-268 = test system: SF-268
A498 = test system: A498
HCT-116 = test system: HCT-116
ACHN = test system: ACHN
Malme-3M = test system: Malme-3M
NCI-H522 = test system: NCI-H522
DU-145 = test system: DU-145
KM12 = test system: KM12
K562 = test system: K562
LOX IMVI = test system: LOX IMVI
OVCAR-4 = test system: OVCAR-4
RPMI-8226 = test system: RPMI-8226
U-251 = test system: U-251
SF-295 = test system: SF-295
HCT-15 = test system: HCT-15
A549 = test system: A549
CCRF-CEM = test system: CCRF-CEM

With Cc1cccc(-n2c(C)nc3ccc(NC4OC(CO)C(O)C(O)C4O)cc3c2=O)c1 (stereo not drawn) the GI50 (UACC-257) was > 100 µM (inactive), the GI50 (SW-620) was > 100 µM (inactive) and the GI50 (SK-MEL-5) was > 100 µM (inactive). For the same compound, the GI50 (SF-268) was > 100 µM (inactive), the GI50 (A498) was > 100 µM (inactive) and the GI50 (HCT-116) was > 100 µM (inactive). The GI50 (ACHN) was > 100 µM (inactive), the GI50 (Malme-3M) was > 100 µM (inactive) and the GI50 (NCI-H522) was > 100 µM (inactive). For the same compound, the GI50 (DU-145) was > 100 µM (inactive), the GI50 (KM12) was > 100 µM (inactive) and the GI50 (K562) was > 100 µM (inactive). For the same compound, the GI50 (LOX IMVI) was > 100 µM (inactive), the GI50 (OVCAR-4) was > 100 µM (inactive) and the GI50 (RPMI-8226) was > 100 µM (inactive). For the same compound, the GI50 (U-251) was > 100 µM (inactive), the GI50 (SF-295) was > 100 µM (inactive) and the GI50 (HCT-15) was over 100 µM.

With O=[N+]([O-])C1=Cc2c(O)ccc(O)c2C2c3ccccc3NC12 (stereo not drawn) the GI50 (UACC-257) was 13.9 µM (inactive), the GI50 (SW-620) was 9.1 µM (inactive) and the GI50 (SK-MEL-5) was 12.8 µM (inactive). For the same compound, the GI50 (SF-268) was 16.7 µM (inactive), the GI50 (A498) was 14.7 µM (inactive) and the GI50 (HCT-116) was 9.16 µM (inactive). For the same compound, the GI50 (ACHN) was 5.83 µM (inactive), the GI50 (A549) was 17.3 µM (inactive) and the GI50 (NCI-H522) was 2.45 µM (inactive). For the same compound, the GI50 (DU-145) was 24.7 µM (inactive), the GI50 (KM12) was 9.04 µM (inactive) and the GI50 (CCRF-CEM) was 3.88 µM (inactive). The GI50 (K562) was 9.27 µM (inactive), the GI50 (LOX IMVI) was 14 µM (inactive) and the GI50 (OVCAR-4) was 16 µM (inactive). The GI50 (RPMI-8226) was 10.4 µM (inactive), the GI50 (U-251) was 12.9 µM (inactive) and the GI50 (SF-295) was 13.2 µM (inactive). The GI50 (HCT-15) was 13 µM.

In the case of CCOC(=O)C(C(N)=O)C1=Nc2cc([N+](=O)[O-])ccc2N/C1=C\C(=O)c1ccccc1 (stereo not drawn), the GI50 (UACC-257) is reported as 19.8 µM (inactive), the GI50 (SW-620) is reported as 15.6 µM (inactive) and the GI50 (SK-MEL-5) is reported as 16.7 µM (inactive). For the same compound, the GI50 (SF-268) was 12.7 µM (inactive), the GI50 (A498) was 16.6 µM (inactive) and the GI50 (HCT-116) was 15 µM (inactive). The GI50 (ACHN) was 15.3 µM (inactive), the GI50 (A549) was 17.3 µM (inactive) and the GI50 (Malme-3M) was 19.9 µM (inactive). The GI50 (NCI-H522) was 14.9 µM (inactive), the GI50 (DU-145) was 13.5 µM (inactive) and the GI50 (KM12) was 12.1 µM (inactive). For the same compound, the GI50 (K562) was 3.82 µM (inactive), the GI50 (LOX IMVI) was 14.1 µM (inactive) and the GI50 (OVCAR-4) was 18.7 µM (inactive). The GI50 (RPMI-8226) was 11.1 µM (inactive), the GI50 (U-251) was 11.3 µM (inactive) and the GI50 (SF-295) was 16.7 µM (inactive). For the same compound, the GI50 (HCT-15) was 12.6 µM.

Cc1ccc(Nc2nc(N)nc3c2ncn3C2OC(CO)C(O)C2O)cc1 (stereo not drawn) was tested, and the GI50 (UACC-257) was > 100 µM (inactive), the GI50 (SW-620) was > 100 µM (inactive) and the GI50 (SK-MEL-5) was > 100 µM (inactive). The GI50 (A498) was > 100 µM (inactive), the GI50 (HCT-116) was > 100 µM (inactive) and the GI50 (ACHN) was > 100 µM (inactive). For the same compound, the GI50 (A549) was > 100 µM (inactive), the GI50 (Malme-3M) was > 100 µM (inactive) and the GI50 (NCI-H522) was > 100 µM (inactive). For the same compound, the GI50 (DU-145) was > 100 µM (inactive), the GI50 (KM12) was > 100 µM (inactive) and the GI50 (CCRF-CEM) was > 100 µM (inactive). The GI50 (K562) was > 100 µM (inactive), the GI50 (LOX IMVI) was > 100 µM (inactive) and the GI50 (OVCAR-4) was > 100 µM (inactive). For the same compound, the GI50 (RPMI-8226) was > 100 µM (inactive), the GI50 (U-251) was > 100 µM (inactive) and the GI50 (SF-295) was > 100 µM (inactive). The GI50 (HCT-15) was over 100 µM.

In the case of C[C@@H]1C[C@](O)([C@@H](C)Cl)C(=O)O[C@@H]2CCN3CC=C(COC(=O)[C@]1(C)O)[C@H]23, the GI50 (UACC-257) is reported as > 100 µM (inactive), the GI50 (SW-620) is reported as > 100 µM (inactive) and the GI50 (SK-MEL-5) is reported as > 100 µM (inactive). For the same compound, the GI50 (SF-268) was > 100 µM (inactive), the GI50 (A498) was > 100 µM (inactive) and the GI50 (HCT-116) was > 100 µM (inactive). For the same compound, the GI50 (ACHN) was > 10 µM (inactive), the GI50 (A549) was > 100 µM (inactive) and the GI50 (NCI-H522) was > 100 µM (inactive). The GI50 (DU-145) was > 100 µM (inactive), the GI50 (KM12) was > 100 µM (inactive) and the GI50 (CCRF-CEM) was > 10 µM (inactive). The GI50 (K562) was > 100 µM (inactive), the GI50 (LOX IMVI) was > 100 µM (inactive) and the GI50 (OVCAR-4) was > 100 µM (inactive). For the same compound, the GI50 (RPMI-8226) was > 100 µM (inactive), the GI50 (U-251) was > 100 µM (inactive) and the GI50 (SF-295) was > 100 µM (inactive). The GI50 (HCT-15) was over 100 µM.

For c1ccc(-c2nc(-c3ccccc3)c(-c3ccccc3)[nH]2)cc1, the GI50 (UACC-257) was > 85.5 µM (inactive), the GI50 (SW-620) was > 100 µM (inactive) and the GI50 (SK-MEL-5) was > 100 µM (inactive). For the same compound, the GI50 (SF-268) was 55.2 µM (inactive), the GI50 (A498) was > 100 µM (inactive) and the GI50 (HCT-116) was 71.9 µM (inactive). For the same compound, the GI50 (ACHN) was > 100 µM (inactive), the GI50 (A549) was > 100 µM (inactive) and the GI50 (Malme-3M) was 36.1 µM (inactive). For the same compound, the GI50 (NCI-H522) was > 82.6 µM (inactive), the GI50 (DU-145) was > 100 µM (inactive) and the GI50 (KM12) was > 93.8 µM (inactive). The GI50 (CCRF-CEM) was 17 µM (inactive), the GI50 (LOX IMVI) was > 100 µM (inactive) and the GI50 (OVCAR-4) was 85.9 µM (inactive). The GI50 (RPMI-8226) was > 47.6 µM (inactive), the GI50 (U-251) was 42.3 µM (inactive) and the GI50 (SF-295) was > 100 µM (inactive). It also gave a GI50 (HCT-15) of over 100 µM.
